In patent US9581598B2, “Diagnosis and treatment of brain tumor” (Sanford-Burnham Medical Research Institute, priority 2012, dated 2017):
Entries after “also recorded” stand apart in the source; their conditions may differ. Each block holds one molecule with its values, some of them ahead of it. Where a SMILES comes first, the peptide text is derived from it. The star is where a group is joined. DTPA(central) = O=C(O)CN(CCN(CCN(CC(=O)O)CC(=O)O)CC(=O)*)CC(=O)O; FITC = O=C1OC2(c3ccc(O)cc3Oc3cc(O)ccc32)c2ccc(NC(=S)*)cc21

Assays:
[1] = tested on: HifKO murine astrocytoma cells; experiment: targeted treatment of tumor bearing mice; format: in vivo; settings: day 14
Procedure: Immunocompromised (Balb/c nu/nu) mice were implanted with HifKO murine astrocytoma cells (Blouw et al. 2003). Treatment with saline (PBS), free chlorambusil (Cbl) and targeted drug (chlorambusil conjugated to CooP peptide; CooP—CPP-Cbl, 5 mg/kg) was started at day 5 post-implantation and continued every second day until day 14.

[2] = tested on: i.c HIFko astrocytoma; experiment: tissue localization of fluorescein-labeled peptide after i.v. injection; format: in vivo, mice
Procedure: (§1) Athymic female Balb/c nu-nu mice (4-6 wks) from Taconic Europe were used in all tumor experiments. Establishment of the intracranial tumors has been described (Blouw et al., 2003). In brief, 50 000 HIFko, VEGF+, U87MG, U87-GFP, U87-MDGI-GFP or BT4C tumor cells in phosphate buffered saline (PBS) or DMEM were injected through the skull using a Hamilton syringe (no 84855), 2 mm right from the bregma at the depth of 3 mm in the brain parenchyma. Mice were used for some experiments 10-15 days after tumor cell inoculation. In experiments studying the role of MDGI in tumor progression and invasiveness, mice were used 10-21 days after tumor cell inoculation. To establish subcutaneous tumors, 2-5×10^6 cells were grafted subcutaneously on the abdominal side of the mice (in some experiments) or into the mammary fat pad, in other experiments. All animal studies were conducted according to the guidelines of the Provincial Government of Southern Finland and the protocol was approved by the Experimental Animal Committee.
Intravenously injected fluorescein-labeled peptides ([…]) and antibodies (20 μg/animal) were allowed to circulate for one hour followed by perfusion through the heart with 10 ml of phosphate buffered saline (PBS) and 10 ml of 4% paraformaldehyde (PFA) in PBS. Tumors and organs were excised, PFA-fixed and soaked in 30% sucrose (w/v) overnight. Tissues were frozen in the OCT embedding medium (Tissue-Tek). Sections (5-10 μm) were cut for histological analyses. To detect the in vivo distribution of the fluorescein-labeled peptides, sections were stained with a rabbit anti-FITC antibody (Zymed Laboratories, San Francisco, USA). […] Sections were examined under an inverted fluorescence microscope (Axioplan).

[3] = tested on: MDGI-expressing MDA-MB-231 xenografts; experiment: homing of fluorescein-labeled peptide after i.v. injection; format: in vivo, mice
Procedure: (§2) Intravenously injected fluorescein-labeled peptides (100 μl of 1 mM solution) and antibodies (20 μg/animal) were allowed to circulate for one hour followed by perfusion through the heart with 10 ml of phosphate buffered saline (PBS) and 10 ml of 4% paraformaldehyde (PFA) in PBS. Tumors and organs were excised, PFA-fixed and soaked in 30% sucrose (w/v) overnight. Tissues were frozen in the OCT embedding medium (Tissue-Tek). Sections (5-10 μm) were cut for histological analyses. To detect the in vivo distribution of the fluorescein-labeled peptides, sections were stained with a rabbit anti-FITC antibody (Zymed Laboratories, San Francisco, USA). To visualize blood vessels, MDGI and tumor cells, sections were stained with the rat anti-mouse CD31 (BD Pharmingen), goat or rabbit anti-MDGI (Santa Cruz Biotechnology, USA), or a rabbit anti-SV40 large T antigen (a kind gift from Dr. Hanahan, ISREC, Switzerland) antibodies followed by the Alexa-594 and Alexa-488 conjugated secondary antibodies (Molecular Probes, Eugene, Oreg., USA). Nuclei were visualized with DAPI (Vector Laboratories, Burlingame). Sections were examined under an inverted fluorescence microscope (Axioplan).
To obtain an MDA-MB-231 breast tumor cell line stably expressing the MDGI as a c-Myc fusion protein, cells were transfected with the pcDNA3-9E10-MDGI plasmid as described herein. […]

[4] = tested on: rat BT4C glioma xenografts; experiment: as above; format: in vivo, mice; settings: intravenous injection
Procedure: as §1, §2

[5] = tested on: intracranial U87MG human glioma xenografts; experiment: as above; format: in vivo, mice; settings: intravenous injection
Procedure: as §1, §2

[6] = tested on: astrocytomas overexpressing VEGF; experiment: as above; format: in vivo, mice; settings: angiogenic vessels
Procedure: as §1, §2

[7] = tested on: orthotopic MDA-MB-231 human breast cancer xenografts; experiment: as above; format: in vivo, mice; settings: intravenous injection; parental MDA-MB-231
Procedure: as §1, §2

[8] = tested on: tumors established from the HIFko cells implanted subcutaneously; experiment: as above; format: in vivo, mice; settings: subcutaneous HIFko tumors
Procedure: as §1, §2

[9] = tested on: i.c. U87MG tumor; parameters: species or system mice; settings: mouse, in vivo
Procedure: The DTPA conjugated peptides (20 μg per animal) were mixed with 0.2 M NaAc (pH 5) and 5 MBq of ^111Indiumchloride (^111InCl3, Mallinckrodt, Le Petten, Netherlands) per animal was added to the mixture. The total volume of the solution was calculated to be 100 μl/animal. The reaction mixture was incubated for an hour at RT and the radiochemical purity was measured by using an instant thin-layer chromatography (ITLC-SG, Pall Corporation, USA) on a 13×1.5 cm strip using 0.3 M NaCit (pH 5) as a mobile phase. The radiochemical purity of the peptides was 99-100%.
The imaging studies were performed two weeks post U87MG tumor implantation. For SPECT/CT (single photon emission computed tomography-computed tomography) imaging animals were anesthetized with 1-3% isoflurane in N2/O2 at a 70:30 ratio. The radiolabeled peptide (100 μl) was injected into the tail vein followed by SPECT imaging using a combined small animal SPECT/CT (Gamma Medica Inc., Northridge, Calif.) with dual gamma camera modality. Medium energy parallel hole collimators were used in all gamma imaging with a 171/245/[…] keV energy window for ^111In. Planar two-dimensional imaging for all animals was performed at earliest possible time point after injection with 60 s acquisition time/image up to 30 minutes. For 3D imaging total of 64 projections, (120 s/projection) were used. The matrix size was 80×80 in 125×125 mm^2 field of view (FOV). […]
After the last imaging session animals were sacrificed with CO2 and tissue samples were collected. Major organs and tissues (blood, heart, lungs, liver, spleen, left kidney, duodenum, ovaries, fat, muscle, skin, brain and brain tumor) were weighed, and the radioactivity in each organ or tissue sample was measured in an automated gamma counter (Clinigamma, Turku, Finland). The counts obtained were corrected for the background radiation and physical decay, and tissue radioactivity was expressed as percentage of the injected dose per gram of tissue (% ID/g)±SD.

Molecule: O=C(O)CCCc1ccc(N(CCCl)CCCl)cc1 [chlorambusil]
condition of the animals at end of experiment [1]: poor condition of the animals

Molecule: FITC-CooP: synthetic CooP peptide conjugated to fluorescein (Ac-K(FITC)ACGLSGLGVA-NH2)
peptide localization in tumor ([2]; 100 μM, 100 μl/animal i.v., 60 minutes circulation): accumulated in the tumor islets in the brain
peptide-derived fluorescence in the kidneys and the choroid plexus ([2]; i.v.): Some peptide-derived fluorescence was observed
peptide in surrounding histologically normal brain or other tissues ([2]; i.v., 60 minutes circulation): not detected

Molecule: NH2-ACGLSGLGVA-CONH2 (H-ACGLSGLGVA-NH2) [CooP peptide, core …]
homing to tumor [3]: homed with high efficiency
homing to tumor [4]: to a lesser yet detectable extent
homing to tumor [5]: homed efficiently
homing to tumor [6]: did not home
peptide detected in tumor [7]: No CooP peptide was detected; also recorded: only negligible amount of the peptide was detected
homing to tumor [8]: did not home

accumulation in the tumor tissue [9]: No accumulation
Molecule: CC(C)C[C@H](NC(=O)[C@H](C)NC(=O)[C@H](C)NC(=O)[C@@H](NC(=O)[C@H](CS)NC(=O)[C@H](C)NC(=O)CN(CCN(CC(=O)O)CC(=O)O)CCN(CC(=O)O)CC(=O)O)C(C)C)C(=O)N[C@@H](CC(N)=O)C(=O)N[C@@H](C)C(=O)N[C@@H](CC(=O)O)C(=O)NCC(N)=O [^111In-labeled control peptide, NH2-ACVAALNADG-CONH2, metal not drawn, reference compound]

tumor half to healthy brain half ratio [9]: up to 20:1
plasma clearance ([9]; iv, 20 ug): rapid
Molecule: CC(C)C[C@H](NC(=O)CNC(=O)[C@H](CO)NC(=O)[C@H](CC(C)C)NC(=O)CNC(=O)[C@H](CS)NC(=O)[C@H](C)NC(=O)CN(CCN(CC(=O)O)CC(=O)O)CCN(CC(=O)O)CC(=O)O)C(=O)NCC(=O)N[C@H](C(=O)N[C@@H](C)C(N)=O)C(C)C [^111In-CooP, metal not drawn] ({DTPA(central)}-ACGLSGLGVA-NH2)
